≈ marks a conversion by molar mass, not a printed value.
Legend:
Enteromorpha spores = assay: inhibitory activity test against the mobility of Enteromorpha spores (Sargassum confusum fractions, Tables 5-8); type: cell-based
Aspergillus niger = assay: minimum inhibitory concentration (MIC) by two-fold serial dilution in nutrient broth; type: cell-based; details: 30° C., 48 hours
Excerpt: (§1) A liquid medium obtained by diluting PAGS by two-fold serial dilution was placed on a 96-multiwell plate and inoculated with 10^4 cfu/ml of microorganisms. […] The liquid medium used in the test was a nutrient broth (Difco).

Staphylococcus aureus = assay: as above; type: cell-based; details: 30° C., 48 hours
Excerpt: as §1

mice = assay: safety test, single administration to mice, observed for 7 days; type: in vivo, mouse; details: 10 mg/kg, 10 mice per group
Method: Each of hexadecane, octadecane, eicosane, 1-eicosanol, 1-pentadecanol, dibutyl phthalate, dioctyl phthalate, diisononyl phthalate, dicyclohexyl phthalate, and 6-formyl-3,4-dehydro-2,8-dimethyl-2-(3′,6′-dienyl-8′-hydroxy-4′-methylnonane)-2H-1-benzopyrane is dissolved in dimethylsulfoxide (DMSO) and diluted with water.

spores of Ulva pertusa = assay: inhibitory effect test against the mobility of the spores of Ulva pertusa (Example 2 fractions); type: cell-based
Method: The effects of the fractions I-VI on the inhibition of attachment of fouling organisms were tested on Ulva pertusa, one of typical fouling algae. Ulva pertusa was collected in Kyongpodae, Kangnung-city, Kangwon-Do, Korea. The collected seaweed was transported to a laboratory in which only Ulva pertusa was screened. In order to remove fouling organisms, the screened algae were treated three times with supersonic waves for 1 minute for each time, and then washed clean with sterilized seawater. The washed algae were simply sterilized by immersion in a mixed solution of 1% betadine and 2% trition X-100 for 1 minute, followed by semi-drying. The semi-dried Ulva pertusa was added to sterilized seawater and placed in a 80 μmol m^−2s^−, 20° C. incubator to induce the release of spores.
10 μl of dimethyl sulfoxide (DMSO) was placed in a prepared tube, to which the seawater having spores released therein was then added. […] Before inoculation with each fraction at each dilution concentration, the movement of spores in the seawater was examined and the result was used as a comparison with a control group.

[1] = oral toxicity of methyl palmitate in mice; details: mouse, in vivo, administered orally to mice
eyes of rabbits = details: rabbit, in vivo
human body = details: in vivo
[2] = fish toxicity against water; details: Blugil fish (a kind of trout), in vivo, other: exposure in water
Method: The physical properties of methyl palmitate are as follows: a melting point of 32-34° C., a boiling point of 163-164° C., and a density of 0.852. […] Blugil fish which is a kind of trout was tested for toxicity against water, the result was as follows: LC50=1000 ml/l.

in vivo = assay: in vivo
Method: Methyl stearate is an opaque white-colored crystal and has the following physical properties: a melting point of 40-42° C., and a boiling point of 181-182° C.

[3] = ratio 1:0 (not explained; test of PAGS)
[4] = ratio 3:1 (not explained; test of PAGS)

| Molecule | death of the mice (mice) | Mobility inhibitory activity (spores of Ulva pertusa; 125 μg/ml) | Mobility inhibitory activity (spores of Ulva pertusa; 250 μg/ml) | Mobility inhibitory activity (spores of Ulva pertusa; 500 μg/ml) | Mobility inhibitory activity (spores of Ulva pertusa; 1,000 μg/ml) | Mobility inhibitory activity (spores of Ulva pertusa; 2,000 μg/ml) | Mobility inhibitory activity (spores of Ulva pertusa; 4,000 μg/ml) | further results |
| --- | --- | --- | --- | --- | --- | --- | --- | --- |
| 6-formyl-3,4-dehydro-2,8-dimethyl-2-(3′,6′-dienyl-8′-hydroxy-4′-methylnonane)-2H-1-benzopyrane | no death | – | – | – | – | – | – | Activity (inhibition of the mobility of spores) (Enteromorpha spores; 125 μg/ml): ++++ (more than 95% inhibition of the mobility of spores); Activity (inhibition of the mobility of spores) (Enteromorpha spores; 250 μg/ml): ++++ (more than 95% inhibition of the mobility of spores); Activity (inhibition of the mobility of spores) (Enteromorpha spores; 500 μg/ml): ++++ (more than 95% inhibition of the mobility of spores); Activity (inhibition of the mobility of spores) (Enteromorpha spores; 1,000 μg/ml): ++++ (more than 95% inhibition of the mobility of spores); Activity (inhibition of the mobility of spores) (Enteromorpha spores; 2,000 μg/ml): ++++ (more than 95% inhibition of the mobility of spores); Activity (inhibition of the mobility of spores) (Enteromorpha spores; 4,000 μg/ml): ++++ (more than 95% inhibition of the mobility of spores); MIC Aspergillus niger 1:0 (Aspergillus niger; [3]): 10; MIC Aspergillus niger 3:1 (Aspergillus niger; [4]): 2; MIC Staphylococcus aureus 1:0 (Staphylococcus aureus; [3]): 4; MIC Staphylococcus aureus 3:1 (Staphylococcus aureus; [4]): 1 |
| CCCCCCCCCCCCCCCCCCCC (single isomer, unassigned) [eicosane] | no death | – | – | – | – | – | – | – |
| CCCCCCCCCCCCCCCO [1-pentadecanol] | no death | – | – | – | – | – | – | – |
| CCCCCCCCCCCCCCCCCCCC [B] | – | ++++ (more than 95% inhibition of the mobility of spores) | ++++ (more than 95% inhibition of the mobility of spores) | ++++ (more than 95% inhibition of the mobility of spores) | ++++ (more than 95% inhibition of the mobility of spores) | ++++ (more than 95% inhibition of the mobility of spores) | ++++ (more than 95% inhibition of the mobility of spores) | – |
| CCCCCCCCCCCCCCCCCCCCO [C] | – | ++++ (more than 95% inhibition of the mobility of spores) | ++++ (more than 95% inhibition of the mobility of spores) | ++++ (more than 95% inhibition of the mobility of spores) | ++++ (more than 95% inhibition of the mobility of spores) | ++++ (more than 95% inhibition of the mobility of spores) | ++++ (more than 95% inhibition of the mobility of spores) | – |
| CCCCCCCCCCCCCCCO [D] | – | ++++ (more than 95% inhibition of the mobility of spores) | ++++ (more than 95% inhibition of the mobility of spores) | ++++ (more than 95% inhibition of the mobility of spores) | ++++ (more than 95% inhibition of the mobility of spores) | ++++ (more than 95% inhibition of the mobility of spores) | ++++ (more than 95% inhibition of the mobility of spores) | – |
| CCCCOC(=O)c1ccccc1C(=O)OCCCC [E] | – | ++++ (more than 95% inhibition of the mobility of spores) | ++++ (more than 95% inhibition of the mobility of spores) | ++++ (more than 95% inhibition of the mobility of spores) | ++++ (more than 95% inhibition of the mobility of spores) | ++++ (more than 95% inhibition of the mobility of spores) | ++++ (more than 95% inhibition of the mobility of spores) | – |
| CCCCCCCCCCCCCCCCCCCCO [Example 1-eicosanol, 1-eicosanol] | no death | – | – | – | – | – | – | – |
| CCCCCCCCOC(=O)c1ccccc1C(=O)OCCCCCCCC [F] | – | ++++ (more than 95% inhibition of the mobility of spores) | ++++ (more than 95% inhibition of the mobility of spores) | ++++ (more than 95% inhibition of the mobility of spores) | ++++ (more than 95% inhibition of the mobility of spores) | ++++ (more than 95% inhibition of the mobility of spores) | ++++ (more than 95% inhibition of the mobility of spores) | – |
| CC(C)CCCCCCOC(=O)c1ccccc1C(=O)OCCCCCCC(C)C [G] | – | ++++ (more than 95% inhibition of the mobility of spores) | ++++ (more than 95% inhibition of the mobility of spores) | ++++ (more than 95% inhibition of the mobility of spores) | ++++ (more than 95% inhibition of the mobility of spores) | ++++ (more than 95% inhibition of the mobility of spores) | ++++ (more than 95% inhibition of the mobility of spores) | – |
| O=C(OC1CCCCC1)c1ccccc1C(=O)OC1CCCCC1 [H] | – | ++++ (more than 95% inhibition of the mobility of spores) | ++++ (more than 95% inhibition of the mobility of spores) | ++++ (more than 95% inhibition of the mobility of spores) | ++++ (more than 95% inhibition of the mobility of spores) | ++++ (more than 95% inhibition of the mobility of spores) | ++++ (more than 95% inhibition of the mobility of spores) | – |
| CCCCOC(=O)c1ccccc1C(=O)OCCCC [dibutyl phthalate] | no death | – | – | – | – | – | – | – |
| O=C(OC1CCCCC1)c1ccccc1C(=O)OC1CCCCC1 [dicyclohexyl phthalate] | no death | – | – | – | – | – | – | – |
| CC(C)CCCCCCOC(=O)c1ccccc1C(=O)OCCCCCCC(C)C [diisononyl phthalate] | no death | – | – | – | – | – | – | – |
| CCCCCCCCOC(=O)c1ccccc1C(=O)OCCCCCCCC [dioctyl phthalate] | no death | – | – | – | – | – | – | – |
| CCCCCCCCCCCCCCCC [hexadecane] | no death | – | – | – | – | – | – | – |
| CCCCCCCCCCCCCCCC(=O)OC [methyl palmitate] | – | – | – | – | – | – | – | LD50 [1]: > 20000 mg/kg; stimulus to eyes (eyes of rabbits): only a transient stimulus phenomenon occurred; stimulus to skin (human body): only a very mild stimulus remained; LC50 [2]: 1000 µg/mL (≈ 3.7 mM) |
| CCCCCCCCCCCCCCCCCC(=O)OC [methyl stearate] | – | – | – | – | – | – | – | LD50 (in vivo; in vivo, species and route not given): > 17200 mg/kg; stimulus (in vivo; suction, intake, epidermal absorption): gives no stimulus |
| CCCCCCCCCCCCCCCCCC [octadecane] | no death | – | – | – | – | – | – | – |
